Experimental data from US12240844B2 (Voronoi, Inc., priority 2019, dated 2025).

Legend:
IL-6 = IL-6 secretion inhibition in LPS-treated THP-1 cells (ELISA); type: cell-based; settings: Homo sapiens, compound 0.5 μM, LPS 500 ng/ml, 24 hours, read-out: THP1/IL6 (% inhib)
Method in brief: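 Human monocytic THP-1 cells were pre-cultured 16 h at 37° C., then treated with compound at 0.5 μM final, followed by LPS at 500 ng/ml final. After 24 h, IL-6 and TNF-α in culture supernatant were quantified by ELISA with absorbance read at 450 nm.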

ALK (C1156Y) = target: T1, ALK (C1156Y) (Homo sapiens, UniProt Q9UM73, C1156Y); assay: scanMAX Kinase panel (DiscoverX), % control; type: binding; settings: <35% = active
T1 construct: purchased DiscoverX
Procedure: (§1) Specifically, for Examples 162, 160, 105, 217, 205, 96, 207, 184, 206, 221, 238, and 237 selected among the example compounds of the present invention, it was decided to measure enzyme (kinase) selectivity by DiscoverX, and the experiment was conducted using a panel for scanMAX™ Kinase analysis. At this time, the concentration of the drug treated with the enzyme was 1 uM in DMSO, the control percentage (% control) was determined in the same way as in Equation 1 below, and the results were shown in Table 6 below. [formula] Here, the positive control refers to a compound showing a control percentage of 0%, and the negative control is DMSO, indicating a control percentage of 100%. Also, in the enzyme selectivity of the present invention, if the control percentage for each enzyme was <35% (i.e., less than 35%), it was determined to have activity against the relevant enzyme.

ALK (L1196M) = target: T2, ALK (L1196M) (Homo sapiens, UniProt Q9UM73, L1196M); assay: scanMAX Kinase panel (DiscoverX), % control; type: binding; settings: <35% = active
T2 construct: purchased DiscoverX
T2 sequence (Q9UM73 19-1620 L1196M): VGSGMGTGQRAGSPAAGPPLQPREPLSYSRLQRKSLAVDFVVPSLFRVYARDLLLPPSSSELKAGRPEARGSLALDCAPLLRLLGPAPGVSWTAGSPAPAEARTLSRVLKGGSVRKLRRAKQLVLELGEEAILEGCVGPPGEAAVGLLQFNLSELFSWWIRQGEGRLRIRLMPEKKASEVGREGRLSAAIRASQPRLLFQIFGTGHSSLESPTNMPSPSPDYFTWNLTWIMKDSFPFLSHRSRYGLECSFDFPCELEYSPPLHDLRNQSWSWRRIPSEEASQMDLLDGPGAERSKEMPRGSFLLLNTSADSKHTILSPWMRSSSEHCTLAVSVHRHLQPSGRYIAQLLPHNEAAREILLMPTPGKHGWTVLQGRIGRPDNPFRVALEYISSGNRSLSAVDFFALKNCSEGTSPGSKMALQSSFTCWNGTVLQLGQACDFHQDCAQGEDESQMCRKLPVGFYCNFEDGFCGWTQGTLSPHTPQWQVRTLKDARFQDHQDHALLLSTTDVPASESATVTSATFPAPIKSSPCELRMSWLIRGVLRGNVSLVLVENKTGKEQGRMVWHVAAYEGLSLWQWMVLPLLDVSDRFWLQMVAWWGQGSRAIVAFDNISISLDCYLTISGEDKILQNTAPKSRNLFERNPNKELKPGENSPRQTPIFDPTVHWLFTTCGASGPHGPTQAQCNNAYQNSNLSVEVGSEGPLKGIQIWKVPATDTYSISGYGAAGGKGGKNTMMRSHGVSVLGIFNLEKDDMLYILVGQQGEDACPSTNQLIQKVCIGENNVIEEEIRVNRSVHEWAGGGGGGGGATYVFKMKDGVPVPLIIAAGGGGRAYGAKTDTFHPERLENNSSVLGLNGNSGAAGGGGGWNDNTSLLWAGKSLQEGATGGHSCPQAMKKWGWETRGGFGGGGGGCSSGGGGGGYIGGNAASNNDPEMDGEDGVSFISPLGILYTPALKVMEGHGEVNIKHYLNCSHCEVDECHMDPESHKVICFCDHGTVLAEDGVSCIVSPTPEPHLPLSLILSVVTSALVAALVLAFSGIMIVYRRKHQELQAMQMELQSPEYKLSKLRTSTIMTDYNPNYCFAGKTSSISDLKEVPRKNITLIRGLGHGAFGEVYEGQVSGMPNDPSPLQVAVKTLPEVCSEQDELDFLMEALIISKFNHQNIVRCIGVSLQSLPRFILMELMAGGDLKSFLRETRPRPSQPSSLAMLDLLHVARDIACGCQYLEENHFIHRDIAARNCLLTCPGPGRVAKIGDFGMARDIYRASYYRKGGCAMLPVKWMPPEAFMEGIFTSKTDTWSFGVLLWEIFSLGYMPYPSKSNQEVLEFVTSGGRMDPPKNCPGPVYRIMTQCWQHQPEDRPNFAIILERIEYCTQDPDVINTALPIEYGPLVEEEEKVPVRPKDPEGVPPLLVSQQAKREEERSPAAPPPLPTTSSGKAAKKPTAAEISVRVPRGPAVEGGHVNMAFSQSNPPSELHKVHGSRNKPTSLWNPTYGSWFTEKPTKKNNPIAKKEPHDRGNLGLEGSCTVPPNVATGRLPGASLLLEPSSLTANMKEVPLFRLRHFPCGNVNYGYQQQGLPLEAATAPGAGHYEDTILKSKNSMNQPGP
Procedure: as §1

CLK1 = target: T3, CLK1 (Homo sapiens, UniProt P49759); assay: scanMAX Kinase panel (DiscoverX), % control; type: binding; settings: <35% = active
T3 construct: purchased DiscoverX
Procedure: as §1

CLK2 = target: T4, CLK2 (Homo sapiens, UniProt P49760); assay: scanMAX Kinase panel (DiscoverX), % control; type: binding; settings: <35% = active
T4 construct: purchased DiscoverX
Procedure: as §1

CLK3 = target: T5, CLK3 (Homo sapiens, UniProt P49761); assay: scanMAX Kinase panel (DiscoverX), % control; type: binding; settings: <35% = active
T5 construct: purchased DiscoverX
T5 sequence (P49761 whole entry): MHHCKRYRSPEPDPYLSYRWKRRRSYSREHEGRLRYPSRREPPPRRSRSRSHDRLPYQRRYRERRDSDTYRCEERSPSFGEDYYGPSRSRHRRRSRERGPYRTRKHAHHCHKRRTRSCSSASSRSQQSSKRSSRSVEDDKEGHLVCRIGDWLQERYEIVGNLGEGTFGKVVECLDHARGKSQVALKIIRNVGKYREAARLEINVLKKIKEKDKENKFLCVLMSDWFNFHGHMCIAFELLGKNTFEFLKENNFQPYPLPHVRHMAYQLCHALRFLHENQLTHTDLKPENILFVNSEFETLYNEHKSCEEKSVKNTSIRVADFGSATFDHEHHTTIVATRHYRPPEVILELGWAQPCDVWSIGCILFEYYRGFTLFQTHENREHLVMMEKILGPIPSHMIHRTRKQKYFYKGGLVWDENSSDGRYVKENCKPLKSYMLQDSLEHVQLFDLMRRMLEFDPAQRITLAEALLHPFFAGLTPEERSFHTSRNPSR
Procedure: as §1

CLK4 = target: T6, CLK4 (Homo sapiens, UniProt Q9HAZ1); assay: scanMAX Kinase panel (DiscoverX), % control; type: binding; settings: <35% = active
T6 construct: purchased DiscoverX
T6 sequence (Q9HAZ1 whole entry): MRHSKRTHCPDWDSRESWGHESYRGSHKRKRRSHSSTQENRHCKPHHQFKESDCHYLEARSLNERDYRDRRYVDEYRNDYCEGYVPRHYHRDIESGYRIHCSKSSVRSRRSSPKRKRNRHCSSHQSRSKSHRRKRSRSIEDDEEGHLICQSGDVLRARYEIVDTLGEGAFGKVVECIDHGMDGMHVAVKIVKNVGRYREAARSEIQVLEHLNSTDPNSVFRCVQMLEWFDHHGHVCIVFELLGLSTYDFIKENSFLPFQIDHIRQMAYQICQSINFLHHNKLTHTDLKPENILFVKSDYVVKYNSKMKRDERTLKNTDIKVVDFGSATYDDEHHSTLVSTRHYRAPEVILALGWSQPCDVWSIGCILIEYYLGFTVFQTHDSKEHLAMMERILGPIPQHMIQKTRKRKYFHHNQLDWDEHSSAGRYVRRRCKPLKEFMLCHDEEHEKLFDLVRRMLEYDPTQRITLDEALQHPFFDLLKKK
Procedure: as §1

DYRK1A = target: T7, DYRK1A (Homo sapiens, UniProt Q13627); assay: scanMAX Kinase panel (DiscoverX), % control; type: binding; settings: <35% = active
T7 construct: purchased DiscoverX
Procedure: as §1

DYRK1B = target: T8, DYRK1B (Homo sapiens, UniProt Q9Y463); assay: scanMAX Kinase panel (DiscoverX), % control; type: binding; settings: <35% = active
T8 construct: purchased DiscoverX
T8 sequence (Q9Y463 whole entry): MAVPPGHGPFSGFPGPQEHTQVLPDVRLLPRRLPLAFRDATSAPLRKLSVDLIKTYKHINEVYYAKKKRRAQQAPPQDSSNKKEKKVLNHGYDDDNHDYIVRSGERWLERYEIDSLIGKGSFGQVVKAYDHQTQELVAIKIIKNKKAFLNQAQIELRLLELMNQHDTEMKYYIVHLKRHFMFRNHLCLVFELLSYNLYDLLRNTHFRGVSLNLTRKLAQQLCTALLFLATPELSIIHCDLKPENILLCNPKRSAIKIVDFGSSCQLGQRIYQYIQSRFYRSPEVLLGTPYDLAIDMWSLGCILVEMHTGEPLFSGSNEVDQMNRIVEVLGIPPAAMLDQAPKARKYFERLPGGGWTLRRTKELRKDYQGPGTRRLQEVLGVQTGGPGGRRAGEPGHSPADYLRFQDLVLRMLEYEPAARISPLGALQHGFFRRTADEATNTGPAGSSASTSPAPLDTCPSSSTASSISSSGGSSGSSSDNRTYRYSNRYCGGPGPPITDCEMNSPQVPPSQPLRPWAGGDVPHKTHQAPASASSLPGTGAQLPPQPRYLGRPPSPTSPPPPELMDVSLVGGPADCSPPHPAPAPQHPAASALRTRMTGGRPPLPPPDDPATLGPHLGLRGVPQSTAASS
Procedure: as §1

DYRK2 = target: T9, DYRK2 (Homo sapiens, UniProt Q92630); assay: scanMAX Kinase panel (DiscoverX), % control; type: binding; settings: <35% = active
T9 construct: purchased DiscoverX
T9 sequence (Q92630 1-601): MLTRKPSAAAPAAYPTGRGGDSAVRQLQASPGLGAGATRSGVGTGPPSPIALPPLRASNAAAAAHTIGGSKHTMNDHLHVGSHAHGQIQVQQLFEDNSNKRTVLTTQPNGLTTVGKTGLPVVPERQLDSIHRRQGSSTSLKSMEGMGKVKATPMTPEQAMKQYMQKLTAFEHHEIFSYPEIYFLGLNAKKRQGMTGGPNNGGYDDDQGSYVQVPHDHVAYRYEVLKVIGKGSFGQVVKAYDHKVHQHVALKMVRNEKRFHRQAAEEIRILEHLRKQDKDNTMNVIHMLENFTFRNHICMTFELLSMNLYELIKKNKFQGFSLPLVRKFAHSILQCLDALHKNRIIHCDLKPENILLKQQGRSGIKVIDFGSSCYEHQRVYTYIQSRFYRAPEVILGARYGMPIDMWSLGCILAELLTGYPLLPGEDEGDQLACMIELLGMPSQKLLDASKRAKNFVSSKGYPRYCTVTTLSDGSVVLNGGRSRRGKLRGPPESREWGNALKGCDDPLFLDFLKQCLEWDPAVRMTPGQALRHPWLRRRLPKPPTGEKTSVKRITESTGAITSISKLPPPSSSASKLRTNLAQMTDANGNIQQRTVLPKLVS
Procedure: as §1

MYLK = target: T10, MYLK (Homo sapiens, UniProt Q15746); assay: scanMAX Kinase panel (DiscoverX), % control; type: binding; settings: <35% = active
T10 construct: purchased DiscoverX
T10 sequence (Q15746 whole entry): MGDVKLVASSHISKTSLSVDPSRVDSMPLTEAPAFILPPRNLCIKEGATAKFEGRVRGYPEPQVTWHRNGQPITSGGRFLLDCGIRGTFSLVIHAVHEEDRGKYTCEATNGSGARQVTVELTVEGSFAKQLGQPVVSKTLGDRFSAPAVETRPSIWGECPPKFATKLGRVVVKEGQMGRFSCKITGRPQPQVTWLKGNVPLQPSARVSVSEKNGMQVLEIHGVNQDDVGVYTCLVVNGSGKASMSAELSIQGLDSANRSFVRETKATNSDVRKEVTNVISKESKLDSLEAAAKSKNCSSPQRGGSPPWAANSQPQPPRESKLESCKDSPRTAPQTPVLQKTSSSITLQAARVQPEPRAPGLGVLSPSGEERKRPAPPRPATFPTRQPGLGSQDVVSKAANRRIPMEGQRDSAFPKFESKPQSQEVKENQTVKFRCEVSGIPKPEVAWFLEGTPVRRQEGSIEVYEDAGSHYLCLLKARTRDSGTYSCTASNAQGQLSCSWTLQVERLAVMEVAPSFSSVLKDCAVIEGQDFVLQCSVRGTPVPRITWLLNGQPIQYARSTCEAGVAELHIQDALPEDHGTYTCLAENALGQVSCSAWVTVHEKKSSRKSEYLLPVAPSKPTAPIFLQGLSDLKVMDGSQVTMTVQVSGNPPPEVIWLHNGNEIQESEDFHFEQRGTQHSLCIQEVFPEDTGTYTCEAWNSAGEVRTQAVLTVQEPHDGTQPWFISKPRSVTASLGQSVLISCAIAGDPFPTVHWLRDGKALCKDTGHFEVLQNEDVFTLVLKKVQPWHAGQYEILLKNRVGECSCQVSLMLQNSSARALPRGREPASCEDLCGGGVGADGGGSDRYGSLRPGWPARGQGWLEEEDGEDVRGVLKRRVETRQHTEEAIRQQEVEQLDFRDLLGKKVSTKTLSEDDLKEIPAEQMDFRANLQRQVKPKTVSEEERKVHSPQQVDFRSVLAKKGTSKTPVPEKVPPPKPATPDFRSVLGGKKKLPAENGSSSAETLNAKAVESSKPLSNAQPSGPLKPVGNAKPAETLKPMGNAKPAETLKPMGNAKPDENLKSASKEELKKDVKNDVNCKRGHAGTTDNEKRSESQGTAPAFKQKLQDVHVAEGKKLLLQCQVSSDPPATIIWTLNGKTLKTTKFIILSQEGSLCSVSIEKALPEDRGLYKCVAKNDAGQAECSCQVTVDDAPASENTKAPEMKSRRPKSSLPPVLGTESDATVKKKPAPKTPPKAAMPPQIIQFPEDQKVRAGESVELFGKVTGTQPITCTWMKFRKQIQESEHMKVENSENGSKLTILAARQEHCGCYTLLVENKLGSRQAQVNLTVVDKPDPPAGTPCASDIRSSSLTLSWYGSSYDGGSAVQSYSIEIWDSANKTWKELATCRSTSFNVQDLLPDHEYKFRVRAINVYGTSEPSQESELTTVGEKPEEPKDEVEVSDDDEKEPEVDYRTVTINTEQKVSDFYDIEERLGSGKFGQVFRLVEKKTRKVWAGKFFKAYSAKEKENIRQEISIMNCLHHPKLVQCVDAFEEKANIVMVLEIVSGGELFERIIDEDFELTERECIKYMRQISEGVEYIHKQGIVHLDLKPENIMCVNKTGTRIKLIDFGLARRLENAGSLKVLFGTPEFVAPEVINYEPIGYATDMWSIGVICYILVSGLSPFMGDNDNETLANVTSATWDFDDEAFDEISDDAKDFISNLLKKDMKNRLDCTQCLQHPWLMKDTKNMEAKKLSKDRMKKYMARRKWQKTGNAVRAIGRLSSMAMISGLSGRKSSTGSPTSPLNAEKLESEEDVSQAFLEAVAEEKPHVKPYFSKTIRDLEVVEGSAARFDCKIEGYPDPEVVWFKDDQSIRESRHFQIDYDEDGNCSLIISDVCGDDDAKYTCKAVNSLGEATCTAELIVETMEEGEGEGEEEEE
Procedure: as §1

Row | SMILES | inhibition at 0.5 µM (IL-6) [%] | remaining binding at 1 µM (ALK (C1156Y)) [%] | remaining binding at 1 µM (ALK (L1196M)) [%] | remaining binding at 1 µM (CLK1) [%] | remaining binding at 1 µM (CLK2) [%] | remaining binding at 1 µM (CLK3) [%] | remaining binding at 1 µM (CLK4) [%] | remaining binding at 1 µM (DYRK1A) [%] | remaining binding at 1 µM (DYRK1B) [%] | remaining binding at 1 µM (DYRK2) [%] | remaining binding at 1 µM (MYLK) [%]
1 | COCCNc1cc(Nc2ccc(P3(=O)CCN(C4CC4)CC3)cc2OC)nc2[nH]cc(C(F)(F)F)c12 [Example 207, 1-cyclopropyl-4-(3-methoxy-4-((4-((2-methoxyethyl)amino)-3-(trifluoromethyl)-1H-pyrrolo[2,3-b]pyridin-6-yl)amino)phenyl)-1,4-azaphosphinane 4-oxide] | 41.7 | 1.8 | 10 | 5.6 | 7.2 | 66 | 0.55 | 0.4 | 0 | 18 | 5.3
2 | CCNc1cc(Nc2ccc(C(=O)N3CCC(N4C[C@@H]5C[C@H]4CO5)CC3)c3c2OCC3)nc2[nH]cc(C(F)(F)F)c12 [Example 105, (4-((1S,4S)-2-oxa-5-azabicyclo[2.2.1]heptan-5-yl)piperidin-1-yl)(7-((4-(ethylamino)-3-(trifluoromethyl)-1H-pyrrolo[2,3-b]pyridin-6-yl)amino)-2,3-dihydrobenzofuran-4-yl)methanone] | 33.2 | 2 | 2.3 | 1.5 | 0.35 | 5.9 | 5.5 | 0 | 0.9 | 8 | 1.3
